Data reported in publication PMC12512194, “The Allosteric Regulator Inositol Phosphate Dramatically Affects the Efficacy and Selectivity of Inhibitors for Different HDAC Complexes” (Journal of the American Chemical Society, 2025).

How the values were obtained:
HDAC1 = molecular target: T1, HDAC1 (Homo sapiens, UniProt Q13547); assay: HDAC1 protein level / degradation by immunoblot in HCT116 cells; assay type: cell-based; settings: even at 10 μM
T1 construct: endogenous in cells; host or cells: HCT116
Protocol: (§1) complex and inhibitor were then incubated at 20 °C, 100 RPM for 2 hours . After incubation, 10 μL of the Boc -(Ac)Lys -AMC substrate, dissolved in HDAC assay buffer, was added to each well. The plate was incubate d at 30 °C, 100 RPM for 1 hour, followed by addition of 50 μL of a developer buffer (50 mM Tris pH 7.5, 100 mM NaCl, 10 mg/mL trypsin) to quench the reaction. The reaction was allowed to develop for 10 minutes at 30 °C, 100 RPM. Fluorescence intensity was determined with the Victor […]
IC50 values were calculated using GraphPad
Prism 7 software by non-linear regression, log (inhibitor) vs. response – variable slope (four […]
(§2) 6. Culture of HCT116 cells
(§3) HCT116 cells were maintained on 100 mm or 60 mm culture dishes in Dulbecco's Modified Eagle Medium (Gibco) supplemented with 10% fetal bovine serum (Sigma) and 1X glutamine/penicillin/streptomycin (Gibco) . Once the cells reached ~90% confluency, they were washed with warm PBS (Sigma), trypsinised using TrypLETM Express solution (Gibco) and put into an incubator at 37°C for 5 minutes. Once dissociated, cell media was used to dilute the cells into required

HDAC3 = molecular target: T2, HDAC3 (Homo sapiens, UniProt O15379); assay: HDAC3 protein level / degradation by immunoblot in HCT116 cells; assay type: cell-based; settings: even at 10 μM
T2 construct: endogenous in cells; host or cells: HCT116
Protocol: as §1, with “Victor X5 plate reader (Perkin Elmer, λex = 355 nm, λem = 460 nm). IC50 values were calculated using GraphPad Prism 7 software by non-linear regression, log (inhibitor) vs. response – variable slope (four” for “Victor”
as §2
as §3, with “Once dissociated, cell media was used to dilute the cells into required” left out
mins, 4 °C) and the supernatant was collected. Protein concentrations were quantified via Bradford Assay using Protein Assay Dye Reagent Concentrate (BIO -RAD). […]

T2 sequence (O15379 whole entry): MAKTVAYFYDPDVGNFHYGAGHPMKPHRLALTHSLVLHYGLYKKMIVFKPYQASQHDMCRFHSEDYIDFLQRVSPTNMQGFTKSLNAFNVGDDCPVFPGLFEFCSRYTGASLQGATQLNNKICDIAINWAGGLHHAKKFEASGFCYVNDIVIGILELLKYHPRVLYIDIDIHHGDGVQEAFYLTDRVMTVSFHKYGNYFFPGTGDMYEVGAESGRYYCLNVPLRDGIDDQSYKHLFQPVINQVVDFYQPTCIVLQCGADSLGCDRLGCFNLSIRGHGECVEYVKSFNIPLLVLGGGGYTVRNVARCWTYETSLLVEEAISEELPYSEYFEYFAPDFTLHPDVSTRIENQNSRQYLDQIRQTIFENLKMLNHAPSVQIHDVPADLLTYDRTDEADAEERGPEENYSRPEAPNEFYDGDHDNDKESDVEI
T2 sequence (Q9Y618 whole entry partner): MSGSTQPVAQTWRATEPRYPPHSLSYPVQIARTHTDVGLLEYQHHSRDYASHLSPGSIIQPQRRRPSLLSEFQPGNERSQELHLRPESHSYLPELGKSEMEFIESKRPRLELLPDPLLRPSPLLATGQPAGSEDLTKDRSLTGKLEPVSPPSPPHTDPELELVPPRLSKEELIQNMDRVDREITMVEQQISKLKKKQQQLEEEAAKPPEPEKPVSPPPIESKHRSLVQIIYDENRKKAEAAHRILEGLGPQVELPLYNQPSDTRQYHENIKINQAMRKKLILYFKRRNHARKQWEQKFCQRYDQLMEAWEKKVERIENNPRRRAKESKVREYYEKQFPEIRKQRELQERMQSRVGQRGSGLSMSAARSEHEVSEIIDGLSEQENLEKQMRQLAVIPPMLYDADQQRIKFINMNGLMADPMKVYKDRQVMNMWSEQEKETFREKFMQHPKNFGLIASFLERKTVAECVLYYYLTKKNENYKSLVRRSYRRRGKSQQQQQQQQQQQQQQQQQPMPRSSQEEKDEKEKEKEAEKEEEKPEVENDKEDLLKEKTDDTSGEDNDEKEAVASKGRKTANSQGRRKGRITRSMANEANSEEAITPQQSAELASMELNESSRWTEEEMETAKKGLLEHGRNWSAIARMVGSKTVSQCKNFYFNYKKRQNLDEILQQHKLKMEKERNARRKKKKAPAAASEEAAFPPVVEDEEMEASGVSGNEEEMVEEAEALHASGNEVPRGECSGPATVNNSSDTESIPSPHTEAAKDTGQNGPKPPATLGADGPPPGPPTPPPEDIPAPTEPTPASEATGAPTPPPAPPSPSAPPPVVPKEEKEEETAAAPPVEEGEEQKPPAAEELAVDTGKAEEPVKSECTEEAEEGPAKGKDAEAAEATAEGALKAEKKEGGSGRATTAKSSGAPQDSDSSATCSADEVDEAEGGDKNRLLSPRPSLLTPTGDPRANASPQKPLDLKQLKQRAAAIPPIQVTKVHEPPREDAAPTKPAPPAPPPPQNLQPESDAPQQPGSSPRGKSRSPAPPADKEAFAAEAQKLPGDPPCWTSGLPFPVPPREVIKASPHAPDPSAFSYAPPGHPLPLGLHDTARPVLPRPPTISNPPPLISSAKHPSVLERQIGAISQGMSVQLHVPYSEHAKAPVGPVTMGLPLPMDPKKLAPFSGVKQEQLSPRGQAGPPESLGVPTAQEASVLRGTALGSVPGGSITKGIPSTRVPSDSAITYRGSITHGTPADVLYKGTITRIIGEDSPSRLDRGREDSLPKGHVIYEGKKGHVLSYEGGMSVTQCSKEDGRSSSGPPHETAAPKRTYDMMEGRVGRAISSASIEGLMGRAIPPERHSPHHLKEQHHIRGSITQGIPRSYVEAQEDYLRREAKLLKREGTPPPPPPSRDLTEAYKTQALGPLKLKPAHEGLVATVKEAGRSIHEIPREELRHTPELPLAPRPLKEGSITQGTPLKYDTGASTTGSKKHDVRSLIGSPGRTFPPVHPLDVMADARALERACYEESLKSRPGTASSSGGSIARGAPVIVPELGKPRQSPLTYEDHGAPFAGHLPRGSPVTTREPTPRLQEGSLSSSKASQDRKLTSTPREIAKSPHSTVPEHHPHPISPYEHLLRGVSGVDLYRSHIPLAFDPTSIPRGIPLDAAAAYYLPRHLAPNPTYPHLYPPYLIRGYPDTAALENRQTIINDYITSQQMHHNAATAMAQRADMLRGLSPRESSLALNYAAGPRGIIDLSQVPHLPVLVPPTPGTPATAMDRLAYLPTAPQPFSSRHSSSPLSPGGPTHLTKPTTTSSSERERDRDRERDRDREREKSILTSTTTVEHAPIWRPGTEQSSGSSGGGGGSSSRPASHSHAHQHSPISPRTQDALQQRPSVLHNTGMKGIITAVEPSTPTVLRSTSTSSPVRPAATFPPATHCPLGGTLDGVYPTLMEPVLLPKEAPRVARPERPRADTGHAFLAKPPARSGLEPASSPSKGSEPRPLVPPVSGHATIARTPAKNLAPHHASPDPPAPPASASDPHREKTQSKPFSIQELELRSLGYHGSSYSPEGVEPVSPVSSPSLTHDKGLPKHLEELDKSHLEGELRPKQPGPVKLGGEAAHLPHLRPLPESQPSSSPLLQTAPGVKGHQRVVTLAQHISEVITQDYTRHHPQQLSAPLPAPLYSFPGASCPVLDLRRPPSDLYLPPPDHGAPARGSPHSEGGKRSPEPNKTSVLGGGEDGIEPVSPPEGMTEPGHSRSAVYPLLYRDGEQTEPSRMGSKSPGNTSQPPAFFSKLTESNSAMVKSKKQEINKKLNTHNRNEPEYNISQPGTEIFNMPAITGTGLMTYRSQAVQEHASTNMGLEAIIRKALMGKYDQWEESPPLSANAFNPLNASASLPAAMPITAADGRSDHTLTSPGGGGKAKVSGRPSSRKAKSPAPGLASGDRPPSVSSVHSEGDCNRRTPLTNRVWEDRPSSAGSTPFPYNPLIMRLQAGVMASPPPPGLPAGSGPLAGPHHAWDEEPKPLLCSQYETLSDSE
T1 sequence (Q13547 whole entry): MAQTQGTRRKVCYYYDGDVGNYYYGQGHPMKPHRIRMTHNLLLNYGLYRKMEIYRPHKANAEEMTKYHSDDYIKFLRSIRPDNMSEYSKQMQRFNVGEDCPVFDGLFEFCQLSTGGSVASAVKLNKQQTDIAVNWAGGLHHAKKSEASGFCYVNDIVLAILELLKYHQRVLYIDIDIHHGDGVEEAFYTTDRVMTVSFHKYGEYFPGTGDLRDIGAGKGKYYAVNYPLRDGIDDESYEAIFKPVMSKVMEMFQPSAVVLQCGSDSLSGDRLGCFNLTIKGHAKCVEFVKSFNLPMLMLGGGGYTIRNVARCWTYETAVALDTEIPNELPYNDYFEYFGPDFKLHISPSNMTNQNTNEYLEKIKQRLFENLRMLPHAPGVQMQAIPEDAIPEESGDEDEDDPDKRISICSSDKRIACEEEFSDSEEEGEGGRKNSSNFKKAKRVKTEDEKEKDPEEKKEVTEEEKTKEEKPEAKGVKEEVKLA

degradation of HDAC1 (HDAC1): no degradation | degradation of HDAC3 (HDAC3): no degradation
SMILES: Cc1ncsc1-c1ccc(CNC(=O)[C@@H]2C[C@@H](O)CN2C(=O)[C@@H](NC(=O)CCCCCCCCCC(=O)N2CCN(c3cnc(C(=O)Nc4cc(-c5ccncc5)ccc4N)cn3)CC2)C(C)(C)C)cc1 [JPS062]
